According to the NIST ThermoML archive (doi:10.1021/je900725w):

Legend:
[1] = 308.15 K, 101.33 kPa, Liquid
[2] = wn = mass fraction of the nth substance listed; conditions: 101 kPa, Liquid; for viscosity: Capillary tube (Ostwald / Ubbelohde) method; for mass density: Vibrating tube method
[3] = relative permittivity at zero frequency (dimensionless); wn = mass fraction of the nth substance listed; conditions: 101 kPa, Liquid, Parallel plate capacitor

CCOCCO [2-ethoxyethan-1-ol]
Conditions | mass density [kg/m3]
[1] | 924.97

Conditions | viscosity [mPa·s]
[1], Capillary tube (Ostwald / Ubbelohde) method | 1.828

CCOCCO [2-ethoxyethan-1-ol] + O
Conditions | mass density, w1 = 0.25 [kg/m3] | mass density, w1 = 0.4 [kg/m3] | mass density, w1 = 0.5 [kg/m3] | relative permittivity at zero frequency, w1 = 0.25 | relative permittivity at zero frequency, w1 = 0.4 | relative permittivity at zero frequency, w1 = 0.5 | viscosity, w1 = 0.25 [mPa·s] | viscosity, w1 = 0.4 [mPa·s] | viscosity, w1 = 0.5 [mPa·s]
[2], 308.15 K | 997.58 | 997.47 | 993.61 | – | – | – | 1.843 | 1.955 | 1.923
[2], 313.15 K | 992.45 | 991.01 | 985.14 | – | – | – | 1.529 | 1.702 | 1.72
[2], 318.15 K | 988.07 | 986.96 | 980.04 | – | – | – | 1.274 | 1.427 | 1.455
[2], 323.15 K | 983.94 | 983.78 | 976.1 | – | – | – | 1.092 | 1.232 | 1.276
[3], 308.15 K | – | – | – | 60.13 | 50.54 | 44.3 | – | – | –
[3], 313.15 K | – | – | – | 58.7 | 49.28 | 43.03 | – | – | –
[3], 318.15 K | – | – | – | 57.37 | 48.14 | 41.95 | – | – | –
[3], 323.15 K | – | – | – | 56.11 | 47.1 | 40.96 | – | – | –
